From PMC7044277 (Nature Communications, 2020)
Where “and” joins values, the source holds several entries; their conditions need not be identical. Identical values can stand only once.

Experiments:
Assay type in all cases: cell-based
320 non-olfactory GPCRs [1] = molecular target: T1, 320 non-olfactory GPCRs (Homo sapiens, UniProt P25105); conditions: receptor PTAFR; replicate values, Fig_4g
T1 construct: expressed in transfected cells; host or cells: HTLA cells

320 non-olfactory GPCRs [2] = molecular target: T2, 320 non-olfactory GPCRs (Homo sapiens, UniProt P25929); conditions: receptor NPY1R; replicate values, Fig_4g
T2 construct: expressed in transfected cells; host or cells: HTLA cells
T2 sequence (P25929 whole entry): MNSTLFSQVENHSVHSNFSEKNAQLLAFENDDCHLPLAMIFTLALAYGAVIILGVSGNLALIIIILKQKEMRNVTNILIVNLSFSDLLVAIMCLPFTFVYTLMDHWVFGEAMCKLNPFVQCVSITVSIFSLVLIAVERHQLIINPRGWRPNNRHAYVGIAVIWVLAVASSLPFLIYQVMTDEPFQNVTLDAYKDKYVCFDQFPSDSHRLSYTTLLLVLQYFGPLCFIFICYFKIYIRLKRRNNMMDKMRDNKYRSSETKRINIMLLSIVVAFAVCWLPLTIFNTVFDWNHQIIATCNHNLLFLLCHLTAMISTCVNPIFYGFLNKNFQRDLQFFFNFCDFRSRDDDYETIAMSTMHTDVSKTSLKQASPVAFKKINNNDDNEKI

320 non-olfactory GPCRs [3] = molecular target: T3, 320 non-olfactory GPCRs (Homo sapiens, UniProt Q96P68); conditions: receptor OXGR1; replicate values, Fig_4g
T3 construct: expressed in transfected cells; host or cells: HTLA cells

320 non-olfactory GPCRs [4] = molecular target: T4, 320 non-olfactory GPCRs (Homo sapiens, UniProt P46663)
T4 construct: expressed in transfected cells; host or cells: HTLA cells
T4 sequence (P46663 whole entry): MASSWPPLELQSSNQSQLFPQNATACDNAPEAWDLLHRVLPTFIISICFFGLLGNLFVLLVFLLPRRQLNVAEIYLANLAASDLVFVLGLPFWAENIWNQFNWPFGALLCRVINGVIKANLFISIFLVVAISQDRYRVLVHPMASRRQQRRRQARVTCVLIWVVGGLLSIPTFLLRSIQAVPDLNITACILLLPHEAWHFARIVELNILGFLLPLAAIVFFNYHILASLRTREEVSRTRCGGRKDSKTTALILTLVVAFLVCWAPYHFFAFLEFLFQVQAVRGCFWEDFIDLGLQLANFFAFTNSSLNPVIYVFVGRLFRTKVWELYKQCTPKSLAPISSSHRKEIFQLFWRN
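Throughout, for Fold of Basal: compound tested at 1 µM final concentration.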
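Throughout, for GPCRome agonism screen response: fold over basal response of each receptor without drug.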

T1 sequence (P25105 whole entry): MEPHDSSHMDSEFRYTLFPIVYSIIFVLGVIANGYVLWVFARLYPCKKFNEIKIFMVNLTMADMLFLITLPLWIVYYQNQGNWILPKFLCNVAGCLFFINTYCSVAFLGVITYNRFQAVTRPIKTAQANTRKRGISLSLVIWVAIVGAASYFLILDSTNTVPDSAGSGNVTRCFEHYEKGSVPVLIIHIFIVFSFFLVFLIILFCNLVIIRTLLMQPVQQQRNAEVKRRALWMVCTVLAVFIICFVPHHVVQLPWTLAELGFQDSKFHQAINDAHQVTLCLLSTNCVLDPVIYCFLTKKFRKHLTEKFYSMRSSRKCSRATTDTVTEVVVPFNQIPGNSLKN

SMILES: CCOc1cccc2cc(C(C)NCC3(O)CCCCC3)oc12 (stereo not shown) [O4LE6]
- GPCRome agonism screen response (320 non-olfactory GPCRs [1]): 0.04948 and 0.5552 and 0.8041
- GPCRome agonism screen response (320 non-olfactory GPCRs [2]): 0.9657 and 1.278 and 0.9923 and 0.817
- GPCRome agonism screen response (320 non-olfactory GPCRs [3]): 1.363 and 1.785 and 0.5079 and 1.083
- Fold of Basal (320 non-olfactory GPCRs [4]): 0.6703 and 0.866 and 0.6219 and 0.6427
